Laboratory results as given in article PMC11796312, “Multifunctional, Fluorene‐Based Modulator of Cholinergic and GABAergic Neurotransmission as a Novel Drug Candidate for Palliative Treatment of Alzheimer's Disease” (Angewandte Chemie (International Ed. in English), 2024).
Where two headings read alike, the source gives them in different places.

What was measured:
eeAChE = biological target: T1, eeAChE (Electrophorus electricus, UniProt O42275); assay: Cholinesterase inhibition, Ellman's protocol, eeAChE; format: biochemical; details: read-out: eeAChE % inh.
T1 construct: purchased Sigma-Aldrich
T1 sequence (O42275 24-633): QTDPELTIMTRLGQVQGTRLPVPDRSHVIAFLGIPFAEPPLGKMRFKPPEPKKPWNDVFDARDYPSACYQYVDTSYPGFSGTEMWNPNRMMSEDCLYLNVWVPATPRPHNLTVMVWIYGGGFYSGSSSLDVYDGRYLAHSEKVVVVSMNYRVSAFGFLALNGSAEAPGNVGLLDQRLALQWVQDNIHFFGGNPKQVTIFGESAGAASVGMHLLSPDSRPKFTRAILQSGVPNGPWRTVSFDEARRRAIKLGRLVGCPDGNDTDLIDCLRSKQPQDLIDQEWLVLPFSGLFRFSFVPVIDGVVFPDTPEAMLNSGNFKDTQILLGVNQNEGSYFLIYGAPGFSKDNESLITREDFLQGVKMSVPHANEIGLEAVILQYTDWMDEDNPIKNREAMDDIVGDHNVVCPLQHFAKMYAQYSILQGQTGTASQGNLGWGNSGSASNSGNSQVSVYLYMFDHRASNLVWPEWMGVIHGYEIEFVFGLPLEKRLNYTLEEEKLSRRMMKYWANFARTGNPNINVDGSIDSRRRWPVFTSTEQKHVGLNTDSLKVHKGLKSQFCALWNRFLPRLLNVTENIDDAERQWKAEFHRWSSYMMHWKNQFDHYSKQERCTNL
Procedure: In vitro pharmacological assays.
The in vitro inhibitory activity toward cholinesterases (eeAChE, eqBuChE,
The target compounds were tested for their inhibitory potency against cholinesterases using
Ellman’s protocol[32] modified for 96-well microplates.
The stock solutions of the
target compounds were prepared in DMSO and diluted with water, giving the desired final
concentrations. The enzymes were prepared as 5 U/mL aqueous stock solutions and diluted
(AChE or BuChE) were added to the reaction mixture in the wells, containing 25 μL of the
target compound (in case of blank samples – water or water/DMSO mixture), 200 μL of 0.1
M phosphate buffer (pH = 8.0) and 20 μL of 5,5'-dithiobis-(2-nitrobenzoic acid) DTNB
All those reagents were preincubated for 5 min at 25 °C for the reactions with the
animal enzymes (eeAChE or eqBuChe) and 36 °C for the human enzyme ( hBuChE) tests. The
enzymatic reaction was initiated by the addition of 20 μL of substrate acetylthiocholine iodide
using the EnSpire multimode microplate reader (PerkinElmer, Waltham, MA, USA). Target
compounds were tested at the screening concentrations of 10 μM or 1 µM for inhibitory
potencies towards animal cholinesterases or human enzyme, respectively. Percent of enzyme
inhibition was calculated based on the formula 100 -(S/B)x100, where S and B were the
respective enzyme activities with and without the test compound, respectively. Compounds
with the enzyme inhibitory activities at 10 μM better than 50% ( eeAChE or eqBuChe) and at
were based on the absorbance measured at seven different inhibitor concentrations, then
percentages of enzymes’ inhibition were plotted against the applied inhibitor concentrations
using nonlinear regression (GraphPad Prism 9; GraphPad Software, San Diego, CA, USA).
All the experiments were performed in
a %inh. at an inhibitor concentration of 10 µM

[1] = Cell viability, PrestoBlue (immunotoxicity); format: cell-based; details: mouse, 24 h, read-out: viability, immuntoxicity X [%]
Procedure: (§1) The mouse microglial cells (BV-2) were cultured using standard procedures. The cells were a generous gift from professor Bozena Kaminska-Kaczmarek from Laboratory of Molecular Neurobiology, Neurobiology Center, Nencki Institute of Experimental Biology, Polish Academy of Sciences, Warsaw, Poland. The cells were cultured in Dulbecco’s Modified Eagle’s Medium - high glucose, (DMEM, Glutamx ThermoFisher ) supplemented with 10% fetal bovine serum heat inactivated (ThermoFisher), with added 100 IU/ml penicillin (Sigma Aldrich) and 100 µg/ml streptomycin (Sigma Aldrich). […]
(§2) an area of 175 cm2 (Nunc), and incubated at 37◦C, 5% CO2. For the test of compounds with the BV-2 cells line, microglia cells were seeded on 96-well culture plate (Falcon) at a density of 2x10^4 cells per well in fresh medium. The cells were grown for 24 hours in the incubator (37°C, 5% CO2) before performing experiments. […]
(§3) Preparation of stock solutions of tested compounds
(§4) Stock solutions were prepared in the concentration of 10 mM for test and reference compounds. Minimum 1 mg of each tested compound was weighed and dissolved in appropriate volume of dimethyl sulfoxide. Serial dilutions were prepared in DMSO and then the diluted compounds were transferred to PBS. Before assays eventual precipitation or opalescence was checked. All experiments were performed in duplicates, in three independent experiments. Cell viability was measured after 24 hours of incubation with tested cell line.
(§5) Cell viability was evaluated using the Presto Blue reagent (Thermo Fisher), according to the manufacturer procedures. Following 24 hours of incubation with the tested molecule, PrestoBlue reagent was added to a microplate well in an amount equal to one tenth of the remaining medium volume. The resulting mixture was incubated for 15 minutes at 37°C, and the fluorescence intensity (EX 530; EM 580 nm) was measured in the plate reader POLARstar Omega, (BMG Labtech). The results (viability values) are provided as a percentage of live cells with respect to DMSO (control sample).
(§6) Viability values were calculated as a percentage of live cells with respect to the control sample (DMSO). The negative control was medium without cells. IC 50 was determined by […]
(§7) nonlinear regression analysis using GraphPad Prism 9.0 software. All values are expressed as […]
(§8) Table S10. The viability of cells. neurotoxicity immuntoxicity
(§9) The results (viability values) are provided as a percentage of live cells with respect to DMSO (control sample)
(§10) Table S11. The viability of cells.

[2] = system: mouse microglial cells (BV-2); assay: Cell viability, PrestoBlue (immunotoxicity); format: cell-based; details: Mus musculus, BV-2, 24 h
Procedure: as §1, §2, §3, §4, §5, §6, §7, §8, §9, §10

[3] = Pharmacokinetic study after i.g. administration; format: in vivo; details: mice
Procedure: Pharmacokinetic study after i.p. and i.g administration
mg/kg), blood samples were collected from mice under deep terminal anesthesia directly by cardiac puncture into heparinized 1.5 mL tubes at selected time intervals.
The samples were centrifuged at 3,000 × g for 10 min (10 °C), and the plasma samples were stored at -80 °C until the HPLC analysis.
The blood in brain vessels would interfere with the assay of actual brain tissue concentrations.
Therefore, the animals were perfused transcardially with saline solution (0.9% NaCl) for 5 min (10 mL/min). After perfusion, the skull was opened, and the brain was carefully removed and immediately stored at -80 °C until the HPLC analysis.
UHPLC-MS method for pharmacokinetics study
Ultra high-performance liquid chromatography system consisting of Ultimate 3000 RS pump Dionex (Thermo Scientific, San Jose, CA, USA) coupled with high-resolution mass spectrometer with orbitrap analyzer (Q Exactive Focus, Thermo Scientific, San Jose, CA, USA) was used in quantitative analyses of 6 in plasma and brain homogenate. According to the EMA[43] and FDA[42] guidelines on Bioanalytical method validation, the method was fully validated for plasma and partially for brain homogenate.
Before analysis, 50 μL of plasma or brain homogenate was precipitated with an internal
standard of 200 μL acetonitrile (ACN). The mixture was vortexed for 1 min at 1,500 rpm and
centrifuged at 12,074 g for 5 min at 20 °C. The supernatant was then transferred to an
injection vial and analyzed.
mm ID (Phenomenex, Torrance, CA, USA), protected with a guard column SecurityGuard
was performed in gradient elution mode with a flow rate of 0.6 mL/min and the following
composition of mobile phase: A) 0.1% FA in water (v/v) and B) 0.1% FA in ACN/MeOH in
The column was kept at 45 °C during
analysis. Samples were held at 10 °C in a light-tight autosampler unit.
Heated-Electrospray Ionization II interface (HESI-II) in positive ion mode was used with the
following settings: spray voltage; +3.5 kV, S-lens RF level; +70 V, capillary temperature 350
°C, auxiliary gas heater temperature; 350 °C, sheet, and auxiliary gas flow; 45 and 15
arbitrary units, respectively. Full MS mode was used at resolution (m/𝛥m) ̴70,000 for
Xcalibur software (v 4.0) was used for data evaluation.

mice = assay: Locomotor activity test; format: in vivo; details: 10 and 30 mg/kg i.p.
Procedure: Effect on depressive-like behavior - forced swim test
The experiment was carried out according to Porsolt et al.[48] with small modifications.
Briefly, mice were individually placed in a glass cylinder (25 cm high, 10 cm in diameter) containing 11 cm of water maintained at 23–25 °C and were left therein for 6 min. A mouse was regarded as immobile when it remained floating on the water, making only small movements to keep its head above it. The total duration of immobility was measured during the final 4 min of a 6-min test session.
Effect on anxiety - four-plate test
The four-plate apparatus (FPT; Bioseb, France) consists of a cage (25 × 18 × 16 cm) that is floored with four rectangular metal plates (11 × 8 cm). The plates are separated from one another by a 4 mm gap, and they are connected to an electroshock generator. […] The number of punished crossings was counted […]
of the closed arms. […] The following parameters were measured in this test: time spent in open arms of the EPM device and the number of entries to open arms. […]
crossings) were counted during the next 60 min of the test. […]
For the analysis of data obtained in the in vivo tests GraphPad Prism software (v. 9.0, CA, USA) was used. Numerical results from the tests were expressed as mean ± standard error of the mean (SEM). […]
In this fear-motivated task the effect of 6 on scopolamine-induced cognitive dysfunction was assessed. […]

Q: With O[C@H](CNCC1CC1)[C@H](Cc1ccccc1)NC1c2ccccc2-c2ccccc21 [Compound 6] as the molecule, how does the inhibition at 10 µM (eeAChE) read?
A: Its inhibition at 10 µM is under 10%.

Q: What about the viability at 24 h, 0.1 µM ([1]; BV-2, 0.1 µM) of the same molecule?
A: Its viability at 24 h, 0.1 µM is 102%.

Q: What about the viability at 24 h, 1 µM ([1]; BV-2, 1 µM) of the same molecule?
A: The viability at 24 h, 1 µM was 103%.

Q: And the viability at 24 h, 10 µM ([1]; BV-2, 10 µM)?
A: Its viability at 24 h, 10 µM is 94.8%.

Q: What about the viability at 24 h, 50 µM ([1]; BV-2, 50 µM) of the same molecule?
A: Its viability at 24 h, 50 µM is 2%.

Q: What about the viability at 24 h, 100 µM ([1]; BV-2, 100 µM, vs DMSO) of the same molecule?
A: Its viability at 24 h, 100 µM is 1.3%.

Q: And the IC50 ([2]; read-out: IMMUNOTOXICTY IC50)?
A: Its IC50 is 18.9 µM.

Q: What about the IC50 ([2]; read-out: IMMUNOTOXICTY pIC (converted)) of the same molecule?
A: The IC50 was 19.1 µM.

Q: What about the Kp ([3]; ICR-CD1, mouse, brain and plasma, po, 10 mg/kg, 10 mg/kg i.g., read-out: Kp (AUCbrain/AUCplasma), brain-to-plasma ratio) of the same molecule?
A: Its Kp is 1.98.

Q: And the Tmax ([3]; ICR-CD1, mouse, brain, po, 10 mg/kg, 10 mg/kg i.g., read-out: brain Tmax (converted))?
A: Its Tmax is 3.33 h.

Q: And the Cmax ([3]; ICR-CD1, mouse, plasma, po, 10 mg/kg, 10 mg/kg i.g.)?
A: The Cmax was 120 ± 30.7 ng/mL.

Q: What about the half-life ([3]; ICR-CD1, mouse, plasma, po, 10 mg/kg, 10 mg/kg i.g., plasma, read-out: Half-life) of the same molecule?
A: The half-life was 3.54 ± 0.449 h.

Q: What about the Vd/F ([3]; ICR-CD1, mouse, plasma, po, 10 mg/kg, 10 mg/kg i.g., plasma, read-out: Vss/F) of the same molecule?
A: Its Vd/F is 120 ± 22.1 L/kg.

Q: And the Vd/F ([3]; ICR-CD1, mouse, plasma, po, 10 mg/kg, 10 mg/kg i.g., plasma, read-out: Vz/F)?
A: The Vd/F was 102 ± 22.9 L/kg.

Q: And the Tmax ([3]; ICR-CD1, mouse, plasma, po, 10 mg/kg, 10 mg/kg i.g., read-out: plasma Tmax (converted))?
A: Its Tmax is 1.33 h.

Q: What about the MRT ([3]; ICR-CD1, mouse, po, 10 mg/kg i.g., plasma) of the same molecule?
A: The MRT was 6.08 h.

Q: And the k el ([3]; ICR-CD1, mouse, po, 10 mg/kg i.g., plasma, read-out: λz (converted))?
A: The k el was 6e-05 s⁻¹.

Q: And the “plasma AUCtotal i.g. as % of AUCtotal after i.p. administration of the same dose” value ([3]; 10 mg/kg)?
A: Its value is “approximately 60%”.

Q: What about the “brain AUCtotal” value ([3]; 10 mg/kg i.g.) of the same molecule?
A: The value was 68,547.70 ± 9,216.46 min.ng/g.

Q: And the “brain Cmax” value ([3]; 10 mg/kg i.g.)?
A: Its value is 158.63 ± 20.04 ng/g.

Q: And the “plasma AUCtotal” value ([3]; 10 mg/kg i.g.)?
A: The value was 34,630.80 ± 4,866.51 min.ng/mL.

Q: And the CL ([3]; 10 mg/kg i.g., plasma)?
A: The CL was 320 ± 50 mL/min/kg.

Q: What about the half-life ([3]; 10 mg/kg i.g., plasma, 10 mg/kg) of the same molecule?
A: Its half-life is 3.53 h.

Q: And the “plasma Cmax” value ([3]; 10 mg/kg i.g., 10 mg/kg)?
A: The value was 120 ng/mL.

Q: And the locomotor activity (mice)?
A: The locomotor activity was “None of these doses significantly affected the locomotor activity”.
